{"source": "patent US8187822B2", "about": "“Methods to identify modulators” (Givaudan S.A., priority 2007, dated 2012)", "target": "T1, TAS2R10 (Homo sapiens, UniProt Q9NYW0)", "T1 construct": "The full length gene of human TAS2R44 was amplified by polymerase chain reaction (PCR) using gene-specific primers that span the entire coding region; RSS tag (first 45 amino acids of rat somatostatin receptor subtype 3) (N); expressed in transfected cells", "T1 sequence (Q9NYW0 1-307)": "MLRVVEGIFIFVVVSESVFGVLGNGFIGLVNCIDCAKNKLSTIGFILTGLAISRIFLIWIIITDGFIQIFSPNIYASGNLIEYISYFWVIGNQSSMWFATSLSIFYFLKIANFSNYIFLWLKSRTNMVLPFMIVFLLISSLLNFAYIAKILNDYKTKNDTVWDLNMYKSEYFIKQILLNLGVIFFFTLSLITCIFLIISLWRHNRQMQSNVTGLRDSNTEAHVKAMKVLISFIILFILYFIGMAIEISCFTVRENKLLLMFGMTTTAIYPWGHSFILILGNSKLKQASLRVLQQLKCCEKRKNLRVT", "test": "Fluo-4 calcium assay, HEK293T cells stably expressing Gα16-gustducin44 and TAS2R10", "type": "cell-based", "data": [{"smiles": "OC[C@H]1O[C@H](O[C@]2(CCl)O[C@H](CCl)[C@@H](O)[C@@H]2O)[C@H](O)[C@@H](O)[C@H]1Cl", "note": "[Sucralose, sucralose]", "values": [{"measurement": "calcium signaling in TAS2R10 cells, in words", "result": "significant concentration-dependent increase in calcium signaling"}, {"measurement": "TAS2R10 ΔF/F0", "setting": "sucralose 0.3906 mM", "result": 0.050}, {"measurement": "TAS2R10 ΔF/F0", "setting": "sucralose 0.7813 mM", "result": 0.050}, {"measurement": "TAS2R10 ΔF/F0", "setting": "sucralose 1.5625 mM", "result": 0.047}, {"measurement": "TAS2R10 ΔF/F0", "setting": "sucralose 3.1250 mM", "result": 0.053}, {"measurement": "TAS2R10 ΔF/F0", "setting": "sucralose 6.2500 mM", "result": 0.053}, {"measurement": "TAS2R10 ΔF/F0", "setting": "sucralose 12.5000 mM", "result": 0.059}, {"measurement": "TAS2R10 ΔF/F0", "setting": "sucralose 25.0000 mM", "result": 0.087}, {"measurement": "TAS2R10 ΔF/F0", "setting": "sucralose 50.0000 mM", "result": 0.212}, {"measurement": "TAS2R10 ΔF/F0", "setting": "sucralose 100.0000 mM", "result": 0.437}]}]}
